Experimental data: PMC11191083 (ACS Omega, 2024)
Where two headings read alike, the source gives them in different places.

How the values were obtained:
[1] = test system: E. coli MG1655 + pBGS18 + CTX-M-2; experiment: MIC broth microdilution, ceftazidime with or without inhibitor; format: cell-based, Escherichia coli; settings: for MIC of ceftazidime in the presence of inhibitor: CTX-M-2 (ESBL), inhibitor concentration 16 μg mL^–1
[2] = test system: E. coli MG1655 + pBGS18 + CTX-M-14; experiment: MIC broth microdilution, ampicillin with or without inhibitor; format: cell-based, Escherichia coli; settings: CTX-M-14 (Class A, ESBL); inhibitor concentration 16 μg mL^–1; 20 h, 37 °C
[3] = test system: E. coli TG1 + pBGS18 + CMY-2; experiment: MIC broth microdilution, ceftazidime with or without inhibitor; format: cell-based, Escherichia coli; settings: for MIC of ceftazidime in the presence of inhibitor: CMY-2 (Class C, ESBL), inhibitor concentration 16 μg mL^–1; for MIC: Escherichia coli
[4] = test system: E. coli TG1 + pBGS18 + DHA-1; experiment: as above; format: cell-based, Escherichia coli; settings: for MIC of ceftazidime in the presence of inhibitor: DHA-1 (Class C, ESBL), inhibitor concentration 16 μg mL^–1; for MIC: Escherichia coli
[5] = test system: K. pneumoniae ΔompK35/36+ pBGS18+ OXA-48; experiment: MIC broth microdilution, imipenem with or without inhibitor; format: cell-based, Klebsiella pneumoniae; settings: for MIC of imipenem in the presence of inhibitor: OXA-48 (Class D, carbapenemase), inhibitor concentration 16 μg mL^–1; for MIC: Klebsiella pneumoniae
[6] = test system: E. coli TG1 + pBGS18 + FOX-4; experiment: MIC broth microdilution, ceftazidime with or without inhibitor; format: cell-based, Escherichia coli; settings: for MIC of ceftazidime in the presence of inhibitor: FOX-4 (Class C, ESBL), inhibitor concentration 16 μg mL^–1; for MIC: Escherichia coli
[7] = test system: P. aeruginosa PAO ΔampD (PDC-1); experiment: as above; format: cell-based; settings: Pseudomonas aeruginosa
[8] = read-out: MIC of ceftazidime without an inhibitor
[9] = read-out: MIC of ceftazidime, strain without β-lactamase

| Compound | MIC of ceftazidime in the presence of inhibitor [1] [μg mL^–1] | MIC of ampicillin in the presence of inhibitor [2] [μg mL^–1] | MIC of ceftazidime in the presence of inhibitor [3] [μg mL^–1] | MIC of ceftazidime in the presence of inhibitor [4] [μg mL^–1] | MIC of imipenem in the presence of inhibitor [5] [μg mL^–1] | MIC of ceftazidime in the presence of inhibitor [6] [μg mL^–1] | other results |
| --- | --- | --- | --- | --- | --- | --- | --- |
| C[C@]1(COC(=O)c2ccncc2O)[C@H](C(=O)[O-])N2C(=O)/C(=C/c3ccccn3)[C@H]2S1(=O)=O.[Na+] [Compound 7] | 256 | 1024 | 1 | 4 | 16 | 0.12 | – |
| CC(C)(O/N=C(\C(=O)N[C@@H]1C(=O)N2C(C(=O)[O-])=C(C[n+]3ccccc3)CS[C@H]12)c1csc(N)n1)C(=O)O [CAZ, ceftazidime, reference compound] | – | – | – | – | – | – | MIC ([1]; Escherichia coli, MG1655, read-out: MIC of ceftazidime without an inhibitor): 1020 µg/mL; MIC [3, 8]: 16 µg/mL; MIC [3, 9]: ≤ 0.06 µg/mL; MIC [7, 8]: 8 µg/mL; MIC [7, 9]: 1 µg/mL; MIC [4, 8]: 32 µg/mL; MIC [4, 9]: ≤ 0.06 µg/mL; MIC [6, 8]: > 64 µg/mL; MIC [6, 9]: ≤ 0.06 µg/mL |
| C[C@]1(COC(=O)c2cc(Cl)ccc2O)[C@H](C(=O)[O-])N2C(=O)/C(=C/c3ccccn3)[C@H]2S1(=O)=O.[Na+] [Compound 5] | 64 | 512 | – | 0.12 | 16 | 16 | – |
| CC1(C)[C@H](C(=O)[O-])N2C(=O)/C(=C/c3cc(CCCOC(=O)Cc4ccc(O)c(O)c4)ccn3)[C@H]2S1(=O)=O.[Na+] [Compound 8] | 256 | 1024 | 4 | 8 | 32 | 8 | – |
| C[C@]1(COC(=O)CCc2ccc(O)c(O)c2)[C@H](C(=O)[O-])N2C(=O)/C(=C/c3ccccn3)[C@H]2S1(=O)=O.[Na+] [Compound 3] | 2 | 32 | ≤0.06 | ≤0.06 | 16 | 0.12 | – |
| C[C@@H](O)[C@H]1C(=O)N2C(C(=O)O)=C(SCCN=CN)C[C@H]12 [IP, imipenem, reference compound] | – | – | – | – | – | – | MIC ([5]; read-out: MIC of imipenem without an inhibitor): 64 µg/mL; MIC ([5]; read-out: MIC of imipenem, strain without β-lactamase): 0.5 µg/mL |
